Laboratory results taken from the supplement of paper PMC11061612.

Key:
Assay in all cases: Bliss excess, mean over the matrix (fraction); higher = more synergy
[1] = tested on: SK-UT-1 (Other Solid Carcinomas)
Procedure, shortened: (§1)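 Bliss excess equals the observed combination effect minus the expected value EA + EB − EA·EB, where EA and EB are the effects of each agent alone. Combination Emax is the second-highest inhibition within the matrix. Inhibition was scaled from CellTiter-Glo 2.0 luminescence, with 0 set by vehicle wells and 1 by blank wells, after 72 hours of two-drug dosing of cells plated in 1536-well plates.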

CS1 (Chondrosarcoma) = tested on: CS1 (Chondrosarcoma)
Procedure, shortened: as §1

HCC38 (Breast Carcinoma) = tested on: HCC38 (Breast Carcinoma)
Procedure, shortened: as §1

H4 (Low Grade Glioma) = tested on: H4 (Low Grade Glioma)
Procedure, shortened: as §1

D-392MG (Glioblastoma) = tested on: D-392MG (Glioblastoma)
Procedure, shortened: as §1

[2] = tested on: D-283MED (Other Solid Carcinomas)
Procedure, shortened: as §1

[3] = tested on: SNG-M (Endometrial Carcinoma)
Procedure, shortened: as §1

[4] = tested on: TC-YIK (Other Solid Carcinomas)
Procedure, shortened: as §1

[5] = tested on: HCT-116 (Colorectal Carcinoma)
Procedure, shortened: as §1

[6] = tested on: NOMO-1 (Acute Myeloid Leukemia)
Procedure, shortened: as §1

[7] = tested on: YT (Other Blood Carcinomas)
Procedure, shortened: as §1

[8] = tested on: WSU-DLCL2 (B-Cell Non-Hodgkin's Lymphoma)
Procedure, shortened: as §1

Saos-2 (Osteosarcoma) = tested on: Saos-2 (Osteosarcoma)
Procedure, shortened: as §1

[9] = tested on: DOK (Oral Cavity Carcinoma)
Procedure, shortened: as §1

| SMILES | Bliss excess [1] | Bliss excess (CS1 (Chondrosarcoma)) | Bliss excess (HCC38 (Breast Carcinoma)) | Bliss excess (H4 (Low Grade Glioma)) | Bliss excess (D-392MG (Glioblastoma)) | Bliss excess [2] | Bliss excess [3] | Bliss excess [4] | Bliss excess [5] | Bliss excess [6] | Bliss excess [7] | Bliss excess [8] | Bliss excess (Saos-2 (Osteosarcoma)) | Bliss excess [9] |
| --- | --- | --- | --- | --- | --- | --- | --- | --- | --- | --- | --- | --- | --- | --- |
| Cc1cc2ncnn2cc1Nc1ncc2c(n1)n(C1CCOCC1)c(=O)n2C [AZD7648] + COc1cc([C@@H]2c3cc4c(cc3[C@@H](O[C@@H]3O[C@@H]5CO[C@@H](C)O[C@H]5[C@H](O)[C@H]3O)[C@H]3COC(=O)[C@H]23)OCO4)cc(OC)c1O [Etoposide] (first compound max 10 µM, 7x7, partner max 10 µM) | 0.117 | 0.017 | 0.0373 | 0.0976 | 0.0658 | 0.0835 | 0.157 | 0.0886 | 0.13 | 0.113 | 0.0495 | 0.185 | 0.054 | 0.109 |
| Cc1c2c(nn1C)CSCc1cc(n(C)n1)CSc1cc(c3ccccc3c1)OCCCc1c(C(=O)O)n(C)c3c-2c(Cl)ccc13 [AZD5991] + Nc1ccn([C@@H]2O[C@H](CO)[C@@H](O)C2(F)F)c(=O)n1 [Gemcitabine] (first compound max 1 µM, 7x7, partner max 0.3 µM) | -0.0367 | -0.0411 | -0.0432 | -0.0393 | -0.112 | 0.0121 | -0.0174 | -0.0315 | -0.0854 | -0.0065 | 0.0413 | 0.0128 | 0.0374 | -0.0008 |
| CN(CCO)CC[C@H](CSc1ccccc1)Nc1ccc(S(=O)(=O)NC(=O)c2ccc(N3CCC([C@@H](O)c4ccccc4-c4ccc(Cl)cc4)CC3)cc2)cc1S(=O)(=O)C(F)(F)F [AZD4320] + CC(=O)O[C@H]1C(=O)[C@@]2(C)[C@H]([C@H](OC(=O)c3ccccc3)[C@]3(O)C[C@H](OC(=O)[C@H](O)[C@@H](NC(=O)c4ccccc4)c4ccccc4)C(C)=C1C3(C)C)[C@]1(OC(C)=O)CO[C@@H]1C[C@@H]2O [Paclitaxel] (first compound max 1 µM, 7x7, partner max 3 µM) | -0.0007 | 0.041 | 0.0324 | -0.0229 | 0.129 | -0.0081 | 0.0275 | 0.0183 | 0.0182 | -0.0101 | -0.0079 | -0.0101 | 0.0937 | 0.0565 |
| O=C(c1cc(Cc2n[nH]c(=O)c3ccccc23)ccc1F)N1CCN(C(=O)C2CC2)CC1 [Olaparib] + COc1nnc2ccc(N3CCC(c4ccc(OCCN5CCN(C)C(=O)[C@H]5C)cc4)CC3)nn12 [AZD5153] (first compound max 10 µM, 7x7, partner max 1 µM) | -0.02 | -0.0718 | -0.0793 | -0.0248 | -0.0759 | -0.0542 | -0.0663 | -0.0784 | -0.0206 | -0.0589 | -0.107 | -0.0091 | -0.02 | -0.0404 |
| C[C@@H](Nc1cc(F)cc(F)c1)c1cc(C(=O)N(C)C)cc2c(=O)cc(N3CCOCC3)oc12 [AZD8186] + C1CN(CCC1(C(=O)N[C@@H](CCO)C2=CC=C(C=C2)Cl)N)C3=NC=NC4=C3C=CN4 [AZD5363] (first compound max 10 µM, 7x7, partner max 10 µM) | 0.0224 | -0.0711 | -0.0395 | -0.0049 | -0.122 | -0.0143 | -0.0046 | -0.0292 | -0.0362 | 0.0385 | -0.0175 | -0.0155 | 0.0104 | -0.0231 |
| N#Cc1cnc(Nc2cc(NC[C@H]3CNCCO3)c(C(F)(F)F)cn2)cn1 [SRA737] + O=c1[nH]cc(F)c(=O)[nH]1 [5-Fluorouracil] (first compound max 10 µM, 7x7, partner max 20 µM) | -0.0052 | -0.0251 | 0.0257 | -0.0189 | -0.0369 | -0.0048 | -0.0115 | 0.0119 | 0.0445 | -0.0007 | 0.0012 | 0.114 | -0.0179 | 0.0382 |
| C[C@@H](Oc1cc(-c2cnn(C3CCNCC3)c2)cnc1N)c1c(Cl)ccc(F)c1Cl [Crizotinib] + Cn1cnc2c(F)c(Nc3ccc(Br)cc3Cl)c(C(=O)NOCCO)cc21 [Selumetinib] (first compound max 10 µM, 7x7, partner max 10 µM) | 0.0041 | -0.0203 | -0.0447 | 0.0034 | -0.0718 | -0.0049 | -0.0333 | -0.0663 | 0.0323 | 0.0157 | -0.0587 | -0.0458 | -0.0337 | 0.017 |
